Patent publication EP4467141A1, “PYRAZOLO-QUINOLINES AS SELECTIVE INHIBITORS OF GENOTOXIC STRESS-INDUCED IKK/NF- KB PATHWAYS FOR CANCER THERAPY” (Max-Delbrück-Centrum für Molekulare Medizin in der …, priority 2023, dated 2024)

What was measured:
Test in all cases: Kinase panel study
Format in all cases: biochemical
Details in all cases: read-out: Percentage of inhibition; for inhibition at 1 µM: 1000nM; for inhibition at 10 µM: 10000nM
CAMK1D (CaMKI delta) = target: T1, CAMK1D (CaMKI delta) (Homo sapiens, UniProt Q8IU85)
T1 construct: purchased Thermo Fisher Scientific
Outline: (§1)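 ZLyte/Adapta biochemical kinase assays, standard operating procedures; % inhibition at 1 µM or 10 µM test compound; IC50 determined in panel.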

PDGFRA D842V = target: T2, PDGFRA D842V (Homo sapiens, UniProt P16234, D842V)
T2 construct: purchased Thermo Fisher Scientific
Outline: as §1

MARK4 = target: T3, MARK4 (Homo sapiens, UniProt Q96L34)
T3 construct: purchased Thermo Fisher Scientific
T3 sequence (Q96L34 1-752): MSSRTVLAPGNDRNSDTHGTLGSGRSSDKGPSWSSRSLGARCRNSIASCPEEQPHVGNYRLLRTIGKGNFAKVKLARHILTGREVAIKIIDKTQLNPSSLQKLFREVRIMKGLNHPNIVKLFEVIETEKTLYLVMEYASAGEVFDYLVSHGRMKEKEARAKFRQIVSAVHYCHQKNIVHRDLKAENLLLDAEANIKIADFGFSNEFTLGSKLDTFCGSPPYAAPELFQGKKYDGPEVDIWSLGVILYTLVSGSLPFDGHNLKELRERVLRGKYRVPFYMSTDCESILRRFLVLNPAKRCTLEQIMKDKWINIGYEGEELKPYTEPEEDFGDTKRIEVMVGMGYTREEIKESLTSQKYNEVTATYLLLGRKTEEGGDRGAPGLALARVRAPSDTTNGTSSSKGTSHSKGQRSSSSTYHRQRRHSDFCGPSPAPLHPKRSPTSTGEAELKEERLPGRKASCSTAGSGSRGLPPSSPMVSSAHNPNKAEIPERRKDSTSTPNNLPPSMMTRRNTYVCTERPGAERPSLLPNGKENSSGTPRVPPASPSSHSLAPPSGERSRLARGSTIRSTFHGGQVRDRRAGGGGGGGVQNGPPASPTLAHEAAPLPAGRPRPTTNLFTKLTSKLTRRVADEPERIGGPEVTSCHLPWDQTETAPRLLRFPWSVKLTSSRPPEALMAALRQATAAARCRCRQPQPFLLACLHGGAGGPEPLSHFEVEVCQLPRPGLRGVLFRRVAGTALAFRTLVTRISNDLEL
Outline: as §1

PIM1 = target: T4, PIM1 (Homo sapiens, UniProt P11309)
T4 construct: purchased Thermo Fisher Scientific
Outline: as §1

PHKG1 = target: T5, PHKG1 (Homo sapiens, UniProt Q16816)
T5 construct: purchased Thermo Fisher Scientific
Outline: as §1

GRK5 = target: T6, GRK5 (Homo sapiens, UniProt P34947)
T6 construct: purchased Thermo Fisher Scientific
Outline: as §1

FLT4 (VEGFR3) = target: T7, FLT4 (VEGFR3) (Homo sapiens, UniProt P35916)
T7 construct: purchased Thermo Fisher Scientific
Outline: as §1

PIK3C2B (PI3K-C2 beta) = target: T8, PIK3C2B (PI3K-C2 beta) (Homo sapiens, UniProt O00750)
T8 construct: purchased Thermo Fisher Scientific
Outline: as §1

RPS6KA3 (RSK2) = target: T9, RPS6KA3 (RSK2) (Homo sapiens, UniProt P51812)
T9 construct: purchased Thermo Fisher Scientific
Outline: as §1

EGFR (ErbB1) L858R = target: T10, EGFR (ErbB1) L858R (Homo sapiens, UniProt P00533, L858R)
T10 construct: purchased Thermo Fisher Scientific
Outline: as §1

ROCK2 = target: T11, ROCK2 (Homo sapiens, UniProt O75116)
T11 construct: purchased Thermo Fisher Scientific
Outline: as §1

HIPK2 = target: T12, HIPK2 (Homo sapiens, UniProt Q9H2X6)
T12 construct: purchased Thermo Fisher Scientific
Outline: as §1

LYN B = target: T13, LYN B (Homo sapiens, UniProt P07948)
T13 construct: purchased Thermo Fisher Scientific
Outline: as §1

LRRK2 R1441C = target: T14, LRRK2 R1441C (Homo sapiens, UniProt Q5S007, R1441C)
T14 construct: purchased Thermo Fisher Scientific
Outline: as §1

RPS6KA2 (RSK3) = target: T15, RPS6KA2 (RSK3) (Homo sapiens, UniProt Q15349)
T15 construct: purchased Thermo Fisher Scientific
Outline: as §1

T11 sequence (O75116 whole entry): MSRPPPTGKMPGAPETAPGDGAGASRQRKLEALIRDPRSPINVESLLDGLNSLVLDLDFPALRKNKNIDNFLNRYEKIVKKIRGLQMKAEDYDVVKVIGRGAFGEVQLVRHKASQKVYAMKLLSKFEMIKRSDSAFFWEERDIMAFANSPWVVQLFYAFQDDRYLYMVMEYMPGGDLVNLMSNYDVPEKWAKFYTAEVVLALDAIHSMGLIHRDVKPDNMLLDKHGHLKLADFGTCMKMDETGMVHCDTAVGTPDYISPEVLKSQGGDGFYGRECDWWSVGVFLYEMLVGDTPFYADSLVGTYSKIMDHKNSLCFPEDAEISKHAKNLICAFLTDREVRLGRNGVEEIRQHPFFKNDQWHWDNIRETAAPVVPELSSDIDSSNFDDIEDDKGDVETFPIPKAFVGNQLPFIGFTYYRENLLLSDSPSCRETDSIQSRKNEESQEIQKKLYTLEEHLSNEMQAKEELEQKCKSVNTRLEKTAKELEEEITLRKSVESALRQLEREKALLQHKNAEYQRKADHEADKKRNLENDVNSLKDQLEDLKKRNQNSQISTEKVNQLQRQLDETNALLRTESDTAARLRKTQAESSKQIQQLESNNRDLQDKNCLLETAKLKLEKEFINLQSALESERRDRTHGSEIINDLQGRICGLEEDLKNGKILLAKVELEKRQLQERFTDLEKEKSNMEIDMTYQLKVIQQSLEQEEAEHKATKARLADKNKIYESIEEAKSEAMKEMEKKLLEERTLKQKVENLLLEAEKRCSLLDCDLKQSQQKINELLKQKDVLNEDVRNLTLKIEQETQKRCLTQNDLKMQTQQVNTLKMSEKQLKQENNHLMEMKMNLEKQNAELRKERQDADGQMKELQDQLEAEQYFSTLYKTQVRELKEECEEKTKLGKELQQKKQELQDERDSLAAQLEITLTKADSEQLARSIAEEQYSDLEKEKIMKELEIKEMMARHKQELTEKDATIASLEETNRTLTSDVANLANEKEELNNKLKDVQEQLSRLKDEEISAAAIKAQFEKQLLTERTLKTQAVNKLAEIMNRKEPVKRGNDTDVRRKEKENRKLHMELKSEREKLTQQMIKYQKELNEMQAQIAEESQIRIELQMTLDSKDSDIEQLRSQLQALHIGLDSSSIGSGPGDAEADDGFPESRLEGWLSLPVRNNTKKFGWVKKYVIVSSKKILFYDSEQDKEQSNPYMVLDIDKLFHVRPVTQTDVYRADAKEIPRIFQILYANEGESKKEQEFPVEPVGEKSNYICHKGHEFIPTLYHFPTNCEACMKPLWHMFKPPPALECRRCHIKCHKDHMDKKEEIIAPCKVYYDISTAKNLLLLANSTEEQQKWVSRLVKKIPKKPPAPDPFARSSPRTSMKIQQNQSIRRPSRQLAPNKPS
T8 sequence (O00750 whole entry): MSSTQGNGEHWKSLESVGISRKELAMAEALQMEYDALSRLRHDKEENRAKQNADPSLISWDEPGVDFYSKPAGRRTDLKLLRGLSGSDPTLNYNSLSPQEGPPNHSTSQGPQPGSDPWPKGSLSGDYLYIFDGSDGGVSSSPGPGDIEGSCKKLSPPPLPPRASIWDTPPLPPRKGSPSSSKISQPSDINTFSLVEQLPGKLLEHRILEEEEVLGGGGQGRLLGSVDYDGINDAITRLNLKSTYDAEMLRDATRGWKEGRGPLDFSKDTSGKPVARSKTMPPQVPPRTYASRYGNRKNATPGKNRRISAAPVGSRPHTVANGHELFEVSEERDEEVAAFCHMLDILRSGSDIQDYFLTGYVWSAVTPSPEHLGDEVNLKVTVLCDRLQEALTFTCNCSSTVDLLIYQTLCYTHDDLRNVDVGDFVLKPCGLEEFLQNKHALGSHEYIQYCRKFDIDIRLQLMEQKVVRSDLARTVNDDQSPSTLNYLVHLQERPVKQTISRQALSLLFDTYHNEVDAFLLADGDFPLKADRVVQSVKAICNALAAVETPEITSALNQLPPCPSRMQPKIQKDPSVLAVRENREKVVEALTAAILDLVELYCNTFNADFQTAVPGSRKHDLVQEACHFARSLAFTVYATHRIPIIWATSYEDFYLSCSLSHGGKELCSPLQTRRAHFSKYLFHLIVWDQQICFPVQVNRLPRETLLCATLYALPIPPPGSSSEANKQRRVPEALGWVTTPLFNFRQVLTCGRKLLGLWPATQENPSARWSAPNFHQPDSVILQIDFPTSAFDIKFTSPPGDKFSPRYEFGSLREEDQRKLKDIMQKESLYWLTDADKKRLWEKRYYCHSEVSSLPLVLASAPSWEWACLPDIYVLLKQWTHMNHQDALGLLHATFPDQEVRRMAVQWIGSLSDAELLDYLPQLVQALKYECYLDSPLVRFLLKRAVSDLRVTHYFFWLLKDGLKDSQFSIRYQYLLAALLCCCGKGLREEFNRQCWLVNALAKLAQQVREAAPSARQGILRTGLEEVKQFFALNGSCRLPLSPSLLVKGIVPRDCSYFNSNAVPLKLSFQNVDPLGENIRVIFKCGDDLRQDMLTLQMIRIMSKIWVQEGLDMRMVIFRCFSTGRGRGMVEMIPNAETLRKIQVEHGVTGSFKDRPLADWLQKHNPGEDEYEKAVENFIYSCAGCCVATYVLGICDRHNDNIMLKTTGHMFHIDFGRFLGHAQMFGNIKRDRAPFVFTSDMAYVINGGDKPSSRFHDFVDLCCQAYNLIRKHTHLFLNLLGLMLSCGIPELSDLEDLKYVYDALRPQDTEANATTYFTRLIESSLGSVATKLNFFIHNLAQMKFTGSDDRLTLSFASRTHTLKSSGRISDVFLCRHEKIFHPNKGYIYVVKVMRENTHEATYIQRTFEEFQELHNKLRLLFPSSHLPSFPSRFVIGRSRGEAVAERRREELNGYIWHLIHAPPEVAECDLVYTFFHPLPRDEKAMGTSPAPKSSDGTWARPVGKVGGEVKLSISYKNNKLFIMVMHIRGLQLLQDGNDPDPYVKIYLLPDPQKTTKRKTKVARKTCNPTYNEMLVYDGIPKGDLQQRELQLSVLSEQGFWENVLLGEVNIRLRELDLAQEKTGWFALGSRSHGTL
T5 sequence (Q16816 whole entry): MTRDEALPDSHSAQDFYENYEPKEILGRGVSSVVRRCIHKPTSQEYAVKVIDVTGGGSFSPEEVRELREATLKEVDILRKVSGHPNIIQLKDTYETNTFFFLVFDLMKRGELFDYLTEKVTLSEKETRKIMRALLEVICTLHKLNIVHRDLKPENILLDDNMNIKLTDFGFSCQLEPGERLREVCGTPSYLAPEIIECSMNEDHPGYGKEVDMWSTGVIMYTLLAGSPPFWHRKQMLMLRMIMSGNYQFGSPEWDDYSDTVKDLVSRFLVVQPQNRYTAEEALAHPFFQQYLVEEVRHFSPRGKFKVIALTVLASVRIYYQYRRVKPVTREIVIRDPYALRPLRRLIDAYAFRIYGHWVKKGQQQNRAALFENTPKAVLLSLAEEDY
T7 sequence (P35916 25-1363): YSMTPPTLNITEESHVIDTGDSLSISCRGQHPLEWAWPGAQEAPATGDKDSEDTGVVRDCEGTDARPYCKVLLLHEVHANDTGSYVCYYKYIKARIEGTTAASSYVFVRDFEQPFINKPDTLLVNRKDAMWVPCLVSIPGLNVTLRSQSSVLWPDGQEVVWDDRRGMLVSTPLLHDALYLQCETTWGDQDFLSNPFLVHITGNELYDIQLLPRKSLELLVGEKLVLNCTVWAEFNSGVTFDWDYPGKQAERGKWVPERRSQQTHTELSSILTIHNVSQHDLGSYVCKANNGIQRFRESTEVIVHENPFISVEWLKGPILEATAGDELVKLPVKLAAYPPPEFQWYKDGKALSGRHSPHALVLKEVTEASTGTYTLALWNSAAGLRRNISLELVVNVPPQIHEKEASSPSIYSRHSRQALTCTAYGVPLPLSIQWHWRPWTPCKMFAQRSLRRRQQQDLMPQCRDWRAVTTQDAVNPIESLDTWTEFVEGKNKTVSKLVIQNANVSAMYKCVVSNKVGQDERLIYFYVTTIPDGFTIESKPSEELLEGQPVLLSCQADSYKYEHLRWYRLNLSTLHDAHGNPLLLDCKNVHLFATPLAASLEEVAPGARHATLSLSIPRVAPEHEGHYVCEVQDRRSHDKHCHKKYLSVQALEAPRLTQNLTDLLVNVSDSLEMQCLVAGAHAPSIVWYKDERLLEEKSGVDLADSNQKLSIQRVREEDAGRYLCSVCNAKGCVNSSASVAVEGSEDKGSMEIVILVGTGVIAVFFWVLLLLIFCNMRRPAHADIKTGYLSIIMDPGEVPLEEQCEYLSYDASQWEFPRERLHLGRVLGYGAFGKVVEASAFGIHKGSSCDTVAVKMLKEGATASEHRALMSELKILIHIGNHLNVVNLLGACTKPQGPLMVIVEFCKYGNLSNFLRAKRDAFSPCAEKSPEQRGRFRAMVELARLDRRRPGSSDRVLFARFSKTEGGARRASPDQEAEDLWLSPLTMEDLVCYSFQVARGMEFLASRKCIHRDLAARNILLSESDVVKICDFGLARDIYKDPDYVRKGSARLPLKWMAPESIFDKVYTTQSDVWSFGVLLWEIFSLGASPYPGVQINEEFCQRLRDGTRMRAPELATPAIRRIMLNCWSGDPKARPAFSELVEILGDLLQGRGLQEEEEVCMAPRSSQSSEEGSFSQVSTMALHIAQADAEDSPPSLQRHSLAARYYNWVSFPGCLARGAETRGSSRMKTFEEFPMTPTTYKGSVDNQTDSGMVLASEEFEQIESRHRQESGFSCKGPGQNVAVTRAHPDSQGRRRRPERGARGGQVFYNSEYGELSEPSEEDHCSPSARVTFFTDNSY
T4 sequence (P11309 whole entry): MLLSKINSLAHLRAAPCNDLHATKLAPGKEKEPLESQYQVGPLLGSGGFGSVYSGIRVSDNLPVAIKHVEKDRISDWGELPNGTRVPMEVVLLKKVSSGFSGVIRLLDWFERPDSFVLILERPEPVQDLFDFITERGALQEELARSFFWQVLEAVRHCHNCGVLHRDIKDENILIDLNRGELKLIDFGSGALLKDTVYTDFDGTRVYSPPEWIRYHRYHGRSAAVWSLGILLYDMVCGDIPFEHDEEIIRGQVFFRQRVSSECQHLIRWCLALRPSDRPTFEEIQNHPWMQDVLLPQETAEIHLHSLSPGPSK

Row | Compound | inhibition at 1 µM (CAMK1D (CaMKI delta)) [%] | inhibition at 10 µM (CAMK1D (CaMKI delta)) [%] | inhibition at 1 µM (PDGFRA D842V) [%] | inhibition at 10 µM (PDGFRA D842V) [%] | inhibition at 1 µM (MARK4) [%] | inhibition at 10 µM (MARK4) [%] | inhibition at 1 µM (PIM1) [%] | inhibition at 10 µM (PIM1) [%] | inhibition at 1 µM (PHKG1) [%] | inhibition at 10 µM (PHKG1) [%] | inhibition at 1 µM (GRK5) [%] | inhibition at 10 µM (GRK5) [%] | inhibition at 1 µM (FLT4 (VEGFR3)) [%] | inhibition at 10 µM (FLT4 (VEGFR3)) [%] | inhibition at 1 µM (PIK3C2B (PI3K-C2 beta)) [%] | inhibition at 10 µM (PIK3C2B (PI3K-C2 beta)) [%] | inhibition at 1 µM (RPS6KA3 (RSK2)) [%] | inhibition at 10 µM (RPS6KA3 (RSK2)) [%] | inhibition at 1 µM (EGFR (ErbB1) L858R) [%] | inhibition at 10 µM (EGFR (ErbB1) L858R) [%] | other results
1 | COc1ccc2cc3c(N)nn(C(=O)c4cccc(N(C)C)c4)c3nc2c1 [MW05, (3-Amino-7-methoxypyrazolo[3,4-b]quinolin-1-yl)-[3-(dimethylamino)phenyl]methanone] | 1 | -1 | -4 | -2 | -3 | -10 | 8 | -9 | 3 | -11 | -2 | 0 | 7 | -3 | 2 | 12 | 3 | 2 | 6 | 16 | inhibition at 1 µM (ROCK2): 14%; inhibition at 10 µM (ROCK2): 4%; inhibition at 1 µM (HIPK2): 4%; inhibition at 10 µM (HIPK2): 13%; inhibition at 1 µM (LYN B): 6%; inhibition at 10 µM (LYN B): 0%; inhibition at 1 µM (LRRK2 R1441C): -2%; inhibition at 10 µM (LRRK2 R1441C): 3%; inhibition at 1 µM (RPS6KA2 (RSK3)): 5%; inhibition at 10 µM (RPS6KA2 (RSK3)): 6%
2 | COc1ccc2c(c1OC)c(=O)n1c3ccc(O)cc3c3ccnc2c31 [MW01, 5-Hydroxy-10,11-dimethoxy-9H-benzo[c]indolo[3,2,1-ij][1,5]naphthyridin-9-one] | 5 | 9 | 3 | 35 | 9 | 15 | 11 | 24 | 8 | 12 | -3 | 0 | 13 | 31 | 53 | 68 | 5 | 10 | 3 | 5 | inhibition at 1 µM (ROCK2): 14%; inhibition at 10 µM (ROCK2): 18%; inhibition at 1 µM (HIPK2): 48%; inhibition at 10 µM (HIPK2): 74%; inhibition at 1 µM (LYN B): 6%; inhibition at 10 µM (LYN B): 23%; inhibition at 1 µM (LRRK2 R1441C): 83%; inhibition at 10 µM (LRRK2 R1441C): 86%; inhibition at 1 µM (RPS6KA2 (RSK3)): 6%; inhibition at 10 µM (RPS6KA2 (RSK3)): 11%
